Key:
C57BL/6j mice = assay: Sub-chronic toxicity study (10 days), plasma biochemistry; type: in vivo; details: daily i.p. 10 days; for A-G Ratio / ALT / AST / Albumin / Alk.Ptase / Bile Acid / Chol / TBIL / Globulin / BUN: plasma; for Globulin: in g/dL (unit assumed); for BUN: in mg/dL (unit assumed)
Method: The sub-chronic toxicity study (10 days) was carried out in C57BL/6J mice (8 weeks) (stock 000664) (n = 10/dose group 5 of each sex). IST5 was administered daily (0, 10, 30 and 100 mg/kg) via i.p. injection. Vehicle (0 mg/kg) group mice received a single i.p. injection of 0.3% hydroxypropyl cellulose. Plasma samples were analyzed for aspartate aminotransferase (AST), alanine aminotransferase (ALT), sorbitol dehydrogenase (SDH), alkaline phosphatase (ALP), γ-lutamyltransferase (GGT), lactate dehydrogenase (LDH), bilirubin (TBIL), protein (TP), glucose (GLU), blood urea nitrogen (BUN), creatinine (CREAT), and electrolytes (Na, K, Cl, Ca, CO2) (Marshfield Labs, WI, USA). A detailed hematological analysis was carried out on the sub-mandibular blood samples of mice collected at the end of the protocol and analyzed for white blood cells, red blood cells, hemoglobin, lymphocyte counts, monocytes, eosinophils and granulocytes. Brain, liver, heart, kidney and spleen were harvested, weighed and fixed in 10% buffered formalin and processed for histopathological analysis. In histopathological analysis, gross morphology and ultra-structural change were assessed. The clinical chemistry parameters measured were the same as those used for the acute toxicity study.

MUSK = molecular target: T1, MUSK (Homo sapiens, UniProt O15146); assay: Kinase Seeker luminescence cell-free assay; type: binding; details: percent activity of kinase after exposure to IST5 1 µM
T1 construct: purchased Reaction Biology (JAK1/2/3, TYK2); Luceome Biotechnologies KinaseSeeker (others)
Method: (§1) For Jak1, Jak2, Jak3 and Tyk2, a radiometric filtration binding assay was conducted by Reaction Biologicals (Malvern, PA, USA) (Table 1). This radiometric assay is a cell-free assay which is based on conventional filter-binding assays, directly measuring kinase catalytic activity toward a specific substrate. For evaluation of the activity of the other kinases, the Kinase Seeker Technology was utilized (Luceome Biotechnologies, Tucson, AZ, USA), which is a luminescence-based cell-free assay. In this assay, the reassembly of luciferase fragments is mediated by the interaction of a kinase with an active site-dependent probe. The competitive displacement of the probe by an inhibitor is measured by a change in luminescence signal. Percent activity of each kinase after exposure to IST5 (1 µM) is presented.

MLK3 = molecular target: T2, MLK3 (Homo sapiens, UniProt Q16584); assay: Kinase Seeker luminescence cell-free assay; type: binding; details: percent activity of kinase after exposure to IST5 1 µM
T2 construct: purchased Reaction Biology (JAK1/2/3, TYK2); Luceome Biotechnologies KinaseSeeker (others)
T2 sequence (Q16584 whole entry): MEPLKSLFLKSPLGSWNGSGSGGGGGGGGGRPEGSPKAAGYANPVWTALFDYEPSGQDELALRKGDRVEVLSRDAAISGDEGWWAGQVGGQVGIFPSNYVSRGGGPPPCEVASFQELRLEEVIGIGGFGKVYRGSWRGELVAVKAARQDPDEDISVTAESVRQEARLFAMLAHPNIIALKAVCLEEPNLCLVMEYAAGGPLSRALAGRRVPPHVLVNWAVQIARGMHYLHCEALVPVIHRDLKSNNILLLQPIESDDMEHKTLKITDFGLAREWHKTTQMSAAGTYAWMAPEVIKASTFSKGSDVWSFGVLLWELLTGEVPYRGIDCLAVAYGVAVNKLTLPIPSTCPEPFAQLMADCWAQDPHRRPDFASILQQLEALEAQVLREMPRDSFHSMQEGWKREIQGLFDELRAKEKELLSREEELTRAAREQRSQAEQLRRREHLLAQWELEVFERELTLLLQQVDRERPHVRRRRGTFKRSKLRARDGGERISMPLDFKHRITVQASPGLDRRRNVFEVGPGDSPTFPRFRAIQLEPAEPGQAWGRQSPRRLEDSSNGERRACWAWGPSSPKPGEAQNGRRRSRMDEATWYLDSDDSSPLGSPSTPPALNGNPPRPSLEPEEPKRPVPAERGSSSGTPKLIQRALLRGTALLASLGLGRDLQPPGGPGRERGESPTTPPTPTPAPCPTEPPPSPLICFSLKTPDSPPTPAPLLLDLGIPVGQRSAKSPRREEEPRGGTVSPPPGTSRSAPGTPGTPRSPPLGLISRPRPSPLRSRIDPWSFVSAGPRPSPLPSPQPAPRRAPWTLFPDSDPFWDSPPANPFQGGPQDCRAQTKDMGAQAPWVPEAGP
Method: as §1

PIM2 = molecular target: T3, PIM2 (Homo sapiens, UniProt Q9P1W9); assay: Kinase Seeker luminescence cell-free assay; type: binding; details: percent activity of kinase after exposure to IST5 1 µM
T3 construct: purchased Reaction Biology (JAK1/2/3, TYK2); Luceome Biotechnologies KinaseSeeker (others)
Method: as §1

PIM1 = molecular target: T4, PIM1 (Homo sapiens, UniProt P11309); assay: Kinase Seeker luminescence cell-free assay; type: binding; details: percent activity of kinase after exposure to IST5 1 µM
T4 construct: purchased Reaction Biology (JAK1/2/3, TYK2); Luceome Biotechnologies KinaseSeeker (others)
Method: as §1

TIE1 = molecular target: T5, TIE1 (Homo sapiens, UniProt P35590); assay: Kinase Seeker luminescence cell-free assay; type: binding; details: percent activity of kinase after exposure to IST5 1 µM
T5 construct: purchased Reaction Biology (JAK1/2/3, TYK2); Luceome Biotechnologies KinaseSeeker (others)
Method: as §1

FLT1 = molecular target: T6, FLT1 (Homo sapiens, UniProt P17948); assay: Kinase Seeker luminescence cell-free assay; type: binding; details: percent activity of kinase after exposure to IST5 1 µM
T6 construct: purchased Reaction Biology (JAK1/2/3, TYK2); Luceome Biotechnologies KinaseSeeker (others)
T6 sequence (P17948 27-1338): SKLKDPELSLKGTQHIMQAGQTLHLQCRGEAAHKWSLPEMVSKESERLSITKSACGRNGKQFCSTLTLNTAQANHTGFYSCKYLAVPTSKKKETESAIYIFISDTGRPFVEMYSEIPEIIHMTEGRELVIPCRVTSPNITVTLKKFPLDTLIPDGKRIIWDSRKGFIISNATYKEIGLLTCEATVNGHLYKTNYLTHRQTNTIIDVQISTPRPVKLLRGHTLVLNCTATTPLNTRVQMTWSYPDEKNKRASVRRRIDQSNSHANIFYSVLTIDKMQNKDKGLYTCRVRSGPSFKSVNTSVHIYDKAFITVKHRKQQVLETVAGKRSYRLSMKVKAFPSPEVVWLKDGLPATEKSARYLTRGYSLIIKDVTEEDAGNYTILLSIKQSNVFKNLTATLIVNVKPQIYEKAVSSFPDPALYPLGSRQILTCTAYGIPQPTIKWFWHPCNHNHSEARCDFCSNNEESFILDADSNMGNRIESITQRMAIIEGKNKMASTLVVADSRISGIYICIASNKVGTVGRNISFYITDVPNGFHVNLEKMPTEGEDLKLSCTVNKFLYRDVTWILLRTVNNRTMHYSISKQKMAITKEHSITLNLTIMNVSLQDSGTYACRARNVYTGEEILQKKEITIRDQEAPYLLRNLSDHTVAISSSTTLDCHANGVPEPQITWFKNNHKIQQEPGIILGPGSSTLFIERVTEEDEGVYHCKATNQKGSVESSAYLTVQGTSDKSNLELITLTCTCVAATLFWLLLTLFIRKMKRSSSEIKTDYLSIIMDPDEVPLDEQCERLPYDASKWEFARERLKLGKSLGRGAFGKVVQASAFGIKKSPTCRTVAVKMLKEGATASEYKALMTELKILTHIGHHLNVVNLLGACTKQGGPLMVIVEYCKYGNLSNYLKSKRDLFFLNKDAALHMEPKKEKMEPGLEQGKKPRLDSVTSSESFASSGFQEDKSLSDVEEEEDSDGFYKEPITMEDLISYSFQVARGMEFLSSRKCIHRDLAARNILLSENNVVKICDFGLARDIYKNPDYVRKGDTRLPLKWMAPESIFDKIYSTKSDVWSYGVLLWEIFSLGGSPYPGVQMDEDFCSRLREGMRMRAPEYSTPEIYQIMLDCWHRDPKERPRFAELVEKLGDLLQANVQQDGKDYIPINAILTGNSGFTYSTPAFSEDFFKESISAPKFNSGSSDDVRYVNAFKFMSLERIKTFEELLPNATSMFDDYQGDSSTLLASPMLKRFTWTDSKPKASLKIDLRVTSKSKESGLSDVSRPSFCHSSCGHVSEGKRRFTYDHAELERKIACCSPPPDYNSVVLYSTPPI
Method: as §1

EPHA1 = molecular target: T7, EPHA1 (Homo sapiens, UniProt P21709); assay: Kinase Seeker luminescence cell-free assay; type: binding; details: percent activity of kinase after exposure to IST5 1 µM
T7 construct: purchased Reaction Biology (JAK1/2/3, TYK2); Luceome Biotechnologies KinaseSeeker (others)
Method: as §1

MLK1 = molecular target: T8, MLK1 (Homo sapiens, UniProt P80192); assay: Kinase Seeker luminescence cell-free assay; type: binding; details: percent activity of kinase after exposure to IST5 1 µM
T8 construct: purchased Reaction Biology (JAK1/2/3, TYK2); Luceome Biotechnologies KinaseSeeker (others)
Method: as §1

INSR = molecular target: T9, INSR (Homo sapiens, UniProt P06213); assay: Kinase Seeker luminescence cell-free assay; type: binding; details: percent activity of kinase after exposure to IST5 1 µM
T9 construct: purchased Reaction Biology (JAK1/2/3, TYK2); Luceome Biotechnologies KinaseSeeker (others)
Method: as §1

PDGFRA = molecular target: T10, PDGFRA (Homo sapiens, UniProt P16234); assay: Kinase Seeker luminescence cell-free assay; type: binding; details: percent activity of kinase after exposure to IST5 1 µM
T10 construct: purchased Reaction Biology (JAK1/2/3, TYK2); Luceome Biotechnologies KinaseSeeker (others)
Method: as §1

AURKA = molecular target: T11, AURKA (Homo sapiens, UniProt O14965); assay: Kinase Seeker luminescence cell-free assay; type: binding; details: percent activity of kinase after exposure to IST5 1 µM
T11 construct: purchased Reaction Biology (JAK1/2/3, TYK2); Luceome Biotechnologies KinaseSeeker (others)
Method: as §1

PYK1 = assay: Kinase Seeker luminescence cell-free assay; type: binding; details: percent activity of kinase after exposure to IST5 1 µM
Method: as §1

PDGFRB = molecular target: T12, PDGFRB (Homo sapiens, UniProt P09619); assay: Kinase Seeker luminescence cell-free assay; type: binding; details: percent activity of kinase after exposure to IST5 1 µM
T12 construct: purchased Reaction Biology (JAK1/2/3, TYK2); Luceome Biotechnologies KinaseSeeker (others)
Method: as §1

PLK4 = molecular target: T13, PLK4 (Homo sapiens, UniProt O00444); assay: Kinase Seeker luminescence cell-free assay; type: binding; details: percent activity of kinase after exposure to IST5 1 µM
T13 construct: purchased Reaction Biology (JAK1/2/3, TYK2); Luceome Biotechnologies KinaseSeeker (others)
T13 sequence (O00444 whole entry): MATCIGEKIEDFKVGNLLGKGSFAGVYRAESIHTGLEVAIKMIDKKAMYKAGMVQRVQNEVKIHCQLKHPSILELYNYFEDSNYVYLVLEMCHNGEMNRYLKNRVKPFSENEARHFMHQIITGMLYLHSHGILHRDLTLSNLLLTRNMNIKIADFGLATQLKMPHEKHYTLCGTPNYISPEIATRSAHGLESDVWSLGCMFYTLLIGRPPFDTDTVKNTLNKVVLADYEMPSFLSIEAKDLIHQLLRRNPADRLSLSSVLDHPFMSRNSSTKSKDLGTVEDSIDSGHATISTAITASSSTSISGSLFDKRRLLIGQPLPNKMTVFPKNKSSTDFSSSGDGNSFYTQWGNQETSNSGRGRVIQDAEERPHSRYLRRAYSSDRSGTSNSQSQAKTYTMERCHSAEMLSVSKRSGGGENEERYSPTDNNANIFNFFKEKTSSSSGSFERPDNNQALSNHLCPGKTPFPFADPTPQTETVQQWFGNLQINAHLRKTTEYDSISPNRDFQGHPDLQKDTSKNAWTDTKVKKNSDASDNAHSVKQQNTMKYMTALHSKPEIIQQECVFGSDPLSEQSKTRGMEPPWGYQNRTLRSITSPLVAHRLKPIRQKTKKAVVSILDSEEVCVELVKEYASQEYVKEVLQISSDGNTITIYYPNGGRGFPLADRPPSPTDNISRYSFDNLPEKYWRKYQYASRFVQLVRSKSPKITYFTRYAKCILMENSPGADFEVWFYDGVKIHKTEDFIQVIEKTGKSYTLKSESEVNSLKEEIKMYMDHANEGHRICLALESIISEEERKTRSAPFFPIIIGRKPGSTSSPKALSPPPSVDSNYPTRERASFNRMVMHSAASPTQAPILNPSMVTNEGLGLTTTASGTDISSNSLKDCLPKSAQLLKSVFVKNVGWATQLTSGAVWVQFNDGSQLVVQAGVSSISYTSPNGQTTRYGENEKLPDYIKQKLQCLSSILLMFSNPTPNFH
Method: as §1

PYK2 = molecular target: T14, PYK2 (Homo sapiens, UniProt Q14289); assay: Kinase Seeker luminescence cell-free assay; type: binding; details: percent activity of kinase after exposure to IST5 1 µM
T14 construct: purchased Reaction Biology (JAK1/2/3, TYK2); Luceome Biotechnologies KinaseSeeker (others)
Method: as §1

YES1 = molecular target: T15, YES1 (Homo sapiens, UniProt P07947); assay: Kinase Seeker luminescence cell-free assay; type: binding; details: percent activity of kinase after exposure to IST5 1 µM
T15 construct: purchased Reaction Biology (JAK1/2/3, TYK2); Luceome Biotechnologies KinaseSeeker (others)
Method: as §1

CAMK1D = molecular target: T16, CAMK1D (Homo sapiens, UniProt Q8IU85); assay: Kinase Seeker luminescence cell-free assay; type: binding; details: percent activity of kinase after exposure to IST5 1 µM
T16 construct: purchased Reaction Biology (JAK1/2/3, TYK2); Luceome Biotechnologies KinaseSeeker (others)
Method: as §1

CAMKK1 = molecular target: T17, CAMKK1 (Homo sapiens, UniProt Q8N5S9); assay: Kinase Seeker luminescence cell-free assay; type: binding; details: percent activity of kinase after exposure to IST5 1 µM
T17 construct: purchased Reaction Biology (JAK1/2/3, TYK2); Luceome Biotechnologies KinaseSeeker (others)
Method: as §1

SYK = molecular target: T18, SYK (Homo sapiens, UniProt P43405); assay: Kinase Seeker luminescence cell-free assay; type: binding; details: percent activity of kinase after exposure to IST5 1 µM
T18 construct: purchased Reaction Biology (JAK1/2/3, TYK2); Luceome Biotechnologies KinaseSeeker (others)
Method: as §1

AURKB = molecular target: T19, AURKB (Homo sapiens, UniProt Q96GD4); assay: Kinase Seeker luminescence cell-free assay; type: binding; details: percent activity of kinase after exposure to IST5 1 µM
T19 construct: purchased Reaction Biology (JAK1/2/3, TYK2); Luceome Biotechnologies KinaseSeeker (others)
Method: as §1

TNK2 = molecular target: T20, TNK2 (Homo sapiens, UniProt Q07912); assay: Kinase Seeker luminescence cell-free assay; type: binding; details: percent activity of kinase after exposure to IST5 1 µM
T20 construct: purchased Reaction Biology (JAK1/2/3, TYK2); Luceome Biotechnologies KinaseSeeker (others)
Method: as §1

TRKB = molecular target: T21, TRKB (Homo sapiens, UniProt Q16620); assay: Kinase Seeker luminescence cell-free assay; type: binding
T21 construct: purchased Reaction Biology (JAK1/2/3, TYK2); Luceome Biotechnologies KinaseSeeker (others)
T21 sequence (Q16620 32-822): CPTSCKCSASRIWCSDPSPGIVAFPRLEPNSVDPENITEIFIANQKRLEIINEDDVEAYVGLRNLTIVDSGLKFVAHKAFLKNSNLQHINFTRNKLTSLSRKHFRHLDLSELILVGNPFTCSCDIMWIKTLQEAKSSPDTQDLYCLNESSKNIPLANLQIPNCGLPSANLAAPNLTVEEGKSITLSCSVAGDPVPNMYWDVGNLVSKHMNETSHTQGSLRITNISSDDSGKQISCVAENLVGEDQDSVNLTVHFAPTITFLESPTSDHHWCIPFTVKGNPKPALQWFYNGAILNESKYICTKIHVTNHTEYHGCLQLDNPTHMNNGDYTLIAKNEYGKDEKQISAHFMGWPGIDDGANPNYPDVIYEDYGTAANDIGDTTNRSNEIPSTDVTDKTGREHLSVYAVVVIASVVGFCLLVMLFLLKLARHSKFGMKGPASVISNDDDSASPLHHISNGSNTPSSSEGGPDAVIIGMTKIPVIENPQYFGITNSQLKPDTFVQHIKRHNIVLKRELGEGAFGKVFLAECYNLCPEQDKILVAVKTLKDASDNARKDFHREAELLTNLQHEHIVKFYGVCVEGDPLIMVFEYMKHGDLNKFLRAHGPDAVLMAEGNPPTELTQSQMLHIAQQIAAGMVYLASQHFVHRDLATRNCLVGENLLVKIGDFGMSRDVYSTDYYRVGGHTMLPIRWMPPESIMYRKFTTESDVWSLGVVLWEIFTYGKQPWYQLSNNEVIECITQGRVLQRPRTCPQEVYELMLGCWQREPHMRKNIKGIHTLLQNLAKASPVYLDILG
Method: as §1

FAK = molecular target: T22, FAK (Homo sapiens, UniProt Q05397); assay: Kinase Seeker luminescence cell-free assay; type: binding; details: percent activity of kinase after exposure to IST5 1 µM
T22 construct: purchased Reaction Biology (JAK1/2/3, TYK2); Luceome Biotechnologies KinaseSeeker (others)
T22 sequence (Q05397 whole entry): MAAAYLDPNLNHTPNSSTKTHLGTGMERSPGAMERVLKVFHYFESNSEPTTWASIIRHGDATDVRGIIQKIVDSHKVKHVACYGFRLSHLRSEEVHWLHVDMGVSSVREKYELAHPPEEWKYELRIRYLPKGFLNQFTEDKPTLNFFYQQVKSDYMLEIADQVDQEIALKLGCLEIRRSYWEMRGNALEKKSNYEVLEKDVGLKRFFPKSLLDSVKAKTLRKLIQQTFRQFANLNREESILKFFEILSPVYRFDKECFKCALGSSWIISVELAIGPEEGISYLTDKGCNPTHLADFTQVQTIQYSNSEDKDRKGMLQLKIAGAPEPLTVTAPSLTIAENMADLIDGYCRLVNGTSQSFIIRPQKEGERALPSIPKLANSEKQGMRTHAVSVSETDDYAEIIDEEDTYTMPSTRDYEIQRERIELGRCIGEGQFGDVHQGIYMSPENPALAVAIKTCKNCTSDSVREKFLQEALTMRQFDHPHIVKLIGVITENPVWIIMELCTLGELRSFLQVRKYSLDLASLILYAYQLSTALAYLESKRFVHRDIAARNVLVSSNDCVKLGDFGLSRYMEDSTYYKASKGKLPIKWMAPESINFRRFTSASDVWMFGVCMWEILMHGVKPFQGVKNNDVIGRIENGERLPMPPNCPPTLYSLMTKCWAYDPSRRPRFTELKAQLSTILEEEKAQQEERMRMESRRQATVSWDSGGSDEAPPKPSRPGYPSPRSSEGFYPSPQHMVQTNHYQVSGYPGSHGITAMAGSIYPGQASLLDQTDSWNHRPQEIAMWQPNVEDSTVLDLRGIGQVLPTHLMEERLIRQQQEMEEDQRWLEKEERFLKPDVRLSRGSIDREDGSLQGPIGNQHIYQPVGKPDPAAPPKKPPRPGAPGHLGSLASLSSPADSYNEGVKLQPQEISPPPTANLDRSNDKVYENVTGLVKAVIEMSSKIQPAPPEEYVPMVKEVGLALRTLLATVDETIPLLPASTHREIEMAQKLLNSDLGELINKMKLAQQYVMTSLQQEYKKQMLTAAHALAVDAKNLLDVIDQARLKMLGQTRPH
Method: as §1

BLK = molecular target: T23, BLK (Homo sapiens, UniProt P51451); assay: Kinase Seeker luminescence cell-free assay; type: binding; details: percent activity of kinase after exposure to IST5 1 µM
T23 construct: purchased Reaction Biology (JAK1/2/3, TYK2); Luceome Biotechnologies KinaseSeeker (others)
Method: as §1

MSK2 = molecular target: T24, MSK2 (Homo sapiens, UniProt O75676); assay: Kinase Seeker luminescence cell-free assay; type: binding; details: percent activity of kinase after exposure to IST5 1 µM
T24 construct: purchased Reaction Biology (JAK1/2/3, TYK2); Luceome Biotechnologies KinaseSeeker (others)
Method: as §1

SLK = molecular target: T25, SLK (Homo sapiens, UniProt Q9H2G2); assay: Kinase Seeker luminescence cell-free assay; type: binding; details: percent activity of kinase after exposure to IST5 1 µM
T25 construct: purchased Reaction Biology (JAK1/2/3, TYK2); Luceome Biotechnologies KinaseSeeker (others)
Method: as §1

O=P(O)(O)OCC1OC(n2cnc3c(NCc4ccccc4)ncnc32)C(O)C1O (stereo not drawn) [IST5]
BW (C57BL/6j mice; 10 mg/kg): 22.5 ± 1.1 gm
HCT (C57BL/6j mice; 10 mg/kg): 0.43 ± 0.02 L/L
A-G Ratio (C57BL/6j mice; 10 mg/kg): 1.93 ± 0.08
ALT (C57BL/6j mice; 10 mg/kg): 50.4 ± 3.71 U/L
AST (C57BL/6j mice; 10 mg/kg): 329.9 ± 30.9 U/L
Albumin (C57BL/6j mice; 10 mg/kg): 2.69 ± 0.05 g/dL
Alk.Ptase (C57BL/6j mice; 10 mg/kg): 51.3 ± 0.72 U/L
Bile Acid (C57BL/6j mice; 10 mg/kg): 21.0 ± 12.7 µmol/dL
Chol (C57BL/6j mice; 10 mg/kg): 65.0 ± 2.09 mg/dL
TBIL (C57BL/6j mice; 10 mg/kg): 0.26 ± 0.02 mg/dL
Globulin (C57BL/6j mice; 10 mg/kg): 1.41 ± 0.04
BUN (C57BL/6j mice; 10 mg/kg): 20.5 ± 0.82
BW (C57BL/6j mice; 30 mg/kg): 23.5 ± 0.6 gm
HCT (C57BL/6j mice; 30 mg/kg): 0.45 ± 0.01 L/L
A-G Ratio (C57BL/6j mice; 30 mg/kg): 1.9 ± 0.11
ALT (C57BL/6j mice; 30 mg/kg): 45.2 ± 3.76 U/L
AST (C57BL/6j mice; 30 mg/kg): 336 ± 57.1 U/L
Albumin (C57BL/6j mice; 30 mg/kg): 2.74 ± 0.07 g/dL
Alk.Ptase (C57BL/6j mice; 30 mg/kg): 53.0 ± 1.93 U/L
Bile Acid (C57BL/6j mice; 30 mg/kg): 2.39 ± 0.32 µmol/dL
Chol (C57BL/6j mice; 30 mg/kg): 70.3 ± 1.38 mg/dL
TBIL (C57BL/6j mice; 30 mg/kg): 0.21 ± 0.01 mg/dL
Globulin (C57BL/6j mice; 30 mg/kg): 1.47 ± 0.07
BUN (C57BL/6j mice; 30 mg/kg): 25 ± 1.32
Activity (MUSK): 100.0%
Activity (MLK3): 93.5%
Activity (PIM2): 91.8%
Activity (PIM1): 93.9%
Activity (TIE1): 100.0%
Activity (FLT1): 88.4%
Activity (EPHA1): 94.0%
Activity (MLK1): 100.0%
Activity (INSR): 91.0%
Activity (PDGFRA): 100.0%
Activity (AURKA): 85.3%
Activity (PYK1): 93.4%
Activity (PDGFRB): 78.4%
Activity (PLK4): 85.8%
Activity (PYK2): 95.7%
Activity (YES1): 100.0%
Activity (CAMK1D): 92.0%
Activity (CAMKK1): 94.2%
Activity (SYK): 92.1%
Activity (AURKB): 96.0%
Activity (TNK2): 98.3%
Activity (TRKB; TRKB, percent activity of kinase after exposure to IST5 1 µM): 89.4%
inhibitory activity on TrkB (TRKB; Table 1): no inhibitory activity
Activity (FAK): 99.0%
Activity (BLK): 100.0%
Activity (MSK2): 90.0%
Activity (SLK): 92.6%
